# Key:
# [1] = system: H1299 tumor bearing nude mice; assay: In vivo therapy study with X-ray irradiation; conditions: 260.8 nmol/kg i.v. + 6 Gy after 4 h; RT only 1826.4
# Procedure: All animal experiments were performed according to protocols approved by the Institutional Animal Care and Use Committee (IACUC). Female athymic nude mice (Charles River Laboratories, USA) at 6 weeks old were housed in a protected unit specified for immunodeficient animals. To establish tumor models, H1299 cells (2×10^5 cells) were suspend in a matrigel solution and were subcutaneously injected into mice using a 28-gauge needle. All mice were randomized into six groups (n=5). When the average tumor volume reached 150 mm3, 200 μL free drug (DM1, DM1-NO) or drug loaded NPs (DM1-NPs, DM1-NO-NPs) in PBS at a dose of 260.8 nmol/kg were injected intravenously into the mice. Mice treated with 200 μL PBS were studied as a control. All the other mice received X-ray irradiation (6 Gy, 320 kV) to tumors 4 h after drug/nanoparticle injection, with the rest of the body shielded by lead. Tumor size and body weight were inspected every 3 days using a digital caliper, and the tumor volume was estimated as (length)×(width)2/2. After 24 days, the mice were euthanized, and the tumor was excised and dissected into slices for hematoxylin and eosin (H&E) staining.
# In vivo therapy studies were performed with H1299 tumor bearing nude mice. When tumor size reached 150 mm3, DM1-NO-NPs (260.8 nmol/kg, equivalent to 0.2 mg DM1/kg) was intravenously (i.v.) injected into the animals (n=5). […]
# H1299 cells = assay: Clonogenic assay with X-ray irradiation, linear-quadratic model; assay type: cell-based, human
# Procedure: Around 3×10^5 of H1299 cells were plated in a series of 25 mm petri dishes in 5 mL of complete RMPI-1640 medium, and the cells were incubated for 24 h at 37° C. Once the cells were completely adhered to the bottom of the plate, the media was replaced with fresh RPMI-1640 containing DM1 or DM1-NO with a final concentration of 20 nM. After another 12 h of incubation, the cell cultures were irradiated by X-rays (320 kV) of different doses Immediately following the X-ray irradiation, the cell monolayers were trypsinized using 0.05% Trypsin/EDTA (Gibco, Life Technologies, USA). Single cells were collected and plated onto a 25 mm petri dish in 5 mL complete media (FIG. 1K). Each dish was then incubated for 21 days to allow colonies to form. After that, the media was removed and 0.5% crystal violet in 70% methanol was used to fixed and stain the existing colonies. The plates were sufficiently and carefully rinsed, and were dried at room temperature. Once dried, the colonies were counted manually under a microscope. When observed under the microscope, colonies of […] were said to be surviving colonies. The survival rate of these colonies was normalized to the plating efficiency of the untreated control cells. The mean and standard deviation of surviving colonies in each treatment group was calculated.
# The potential of DM1-NO as a radiosensitizer was assessed by clonogenic assays. Briefly, DM1 or DM1-NO was incubated with H1299 cells, the cells were irradiated with X-rays (0-10 Gy), and the resulting cells were seeded onto a petri dish (FIG. 1K). Colonies consisting more than 50 cells after 3 weeks were counted, and the data fit to a linear-quadratic model (Table 3).
smiles,measurement,setting,value
COc1cc2cc(c1Cl)N(C)C(=O)C[C@@H](OC(=O)[C@H](C)N(C)C(=O)CCSN=O)[C@]1(C)OC1[C@H](C)[C@@H]1C[C@@](O)(NC(=O)O1)[C@H](OC)/C=C\C=C(/C)C2 (some centres unmarked) [DM1-NO],average tumor size (volume) on Day 24,[1],759.33 mm3
same,D10 (radiation dose at 10% fractional survival),"H1299 cells; 20 nM, 12 h, X-rays 0-10 Gy",4.39 Gy
same,α (linear quadratic model best fit value),"H1299 cells; 20 nM, 12 h, X-rays 0-10 Gy",0.0765
same,β (linear quadratic model best fit value),"H1299 cells; 20 nM, 12 h, X-rays 0-10 Gy",0.0051
same,dose modifying factor at 10% factional survival (DMF10),H1299 cells; relative to RT alone,1.23
